# Measurements taken from article PMC3340143 (The Journal of Biological Chemistry, 2012).
# Biological target: T1, CymA (Shewanella oneidensis, UniProt Q8E8S0)
# T1 sequence (Q8E8S0 1-187): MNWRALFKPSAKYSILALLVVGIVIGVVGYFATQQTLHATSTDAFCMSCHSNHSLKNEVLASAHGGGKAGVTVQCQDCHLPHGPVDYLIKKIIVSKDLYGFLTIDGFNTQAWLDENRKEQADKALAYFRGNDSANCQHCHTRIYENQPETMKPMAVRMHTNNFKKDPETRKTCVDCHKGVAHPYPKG
# Assay: protein-film cyclic voltammetry, inhibition of menaquinone-7 reduction
# Type: biochemical
smiles,measurement,value
CCCCCCCc1cc(O)c2ccccc2[n+]1[O-] [HQNO],Ki,0.8 µM
